Assay results reported in patent US20250304952A1, “DNA ELEMENT RESPONSIVE TO EXTRACHROMOSOMAL DNA IN CANCER CELLS” (The Board of Trustees of the Leland Stanford Junior …, priority 2021, published 2025).

What was measured:
[1] = tested on: ecDNA hubs in COLO320-DM; test: ecDNA clustering by interphase DNA FISH, autocorrelation g(r); format: cell-based, human; conditions: 6 hours
Excerpt: The Oligopaint FISH probe libraries were constructed as described previously 51 Each oligo consists of a 40 nucleotide (nt) homology to the hg19 genome assemble designed from the algorithm developed from the laboratory of Dr. Ting Wu (https://oligopaints.hms.harvard.edu/). Each library subpool consists of a unique sets of primer pairs for orthogonal PCR amplification and a 20 nt T7 promoter sequence for in vitro transcription and a 20 nt region for reverse transcription. Individual Oligopaint probes were generated by PCR amplification, in vitro transcription, and reverse transcription, in which ssDNA oligos conjugated with ATTO488 and ATTO647 fluorophores were introduced during the reverse transcription step. The Oligopaint covered genomic regions (hg19) used in this study are as follows: chr8: 116967673-118566852 (hg19_COLO_nonecDNA_1.5Mbp), chr8: 127435083-129017969 (hg19_COLO_ecDNA_1.5Mbp), chr8: 128729248-128831223 (hg19_PC3_ecDNA1_100 kb). A ssDNA oligo pool was ordered and synthesized from Twist Bioscience (San Francisco, CA). 15 mm #1.5 round glass coverslips (Electron Microscopy Sciences) were pre-rinsed with anhydrous ethanol for 5 min, air dried, and coated with L-poly lysine solution (100 μg/mL) for at least 2 hours. Fully dissociated ColoDM320 or PC3 cells were seeded onto the coverslips and recovered for at least 6 hours before experiments. Cells were fixed with 4% (v/v) methanol free paraformaldehyde diluted in 1×PBS at room temperature for 10 min. Then cells were washed 2× with 1×PBS and permeabilized in 0.5% Triton-X100 in 1×PBS for 30 min. After 2× wash in 1×PBS, cells were treated with 0.1M HCl for 5 min, followed by 3× washes with 2×SSC and 30 min incubation in 2×SSC+0.1% Tween20 (2×SSCT)+50% (v/v) formamide (EMD Millipore, cat #S4117). […]
To analyze the clustering of ecDNAs, we applied the autocorrelation function as described previously58 in Matlab (2019). g(r) estimates the probability of detecting another ecDNA signal at increasing distances from the viewpoint of an index ecDNA signal and is equal to 1 for a uniform, random distribution. Specifically, the pair auto-correlation function g(r^→) was calculated by the fast Fourier transform (FFT) method described by the equations below.
N(r^→) is the auto-correlation of a mask matrix that has the value of 1 inside the nucleus used for normalization. […] Autocorrelation functions were calculated first by converting the Cartesian coordinates to polar coordinates by Matlab cart2pol( ) function, binning by radius and by averaging within the assigned bins. […]

[2] = tested on: MYC mRNA in COLO320-DM cells; test: MYC RNA measured by RT-qPCR in COLO320-DM; format: cell-based, human; conditions: 500 nM, 6 hours
Procedure: Cells were then treated for 6 hours with 500 nM JQ1 in DMSO unless otherwise indicated (Sigma-Aldrich SML1524) or an equivalent volume of DMSO.
RNA was extracted using RNeasy Plus mini Kit (QIAGEN 74136). Purified RNA was quantified by Nanodrop (Thermo Fisher). For RT-qPCR, 50 ng of RNA, 1× Brilliant II qRT-PCR mastermix with 1 μL RT/RNase block (Agilent 600825), and 200 nM forward and reverse primer were used. Each Ct value was measured using Lightcycler 480 (Roche) and each mean dCt was averaged from duplicate qRT-PCR reaction and performed in biological triplicate. Relative MYC RNA level (RT-qPCR primers MYC_exon3_fw and MYC_exon3_rv) was calculated by ddCt method compared to 18S and GAPDH controls (RT-qPCR primers GAPDH_fw, GAPDH_rv, 18S_fw, 18S_rv). P values were calculated using a Student's t-test by comparing the relative fold change of biological triplicates.
Approximately 0.6×10^6 COLO320-DM or COLO-320-HSR cells were plated in 6 well plates and cultured under standard conditions for 24 hours. Cells were then treated for 6 hours with one of the following: 500 nM JQ1 (Sigma-Aldrich SML1524), 500 nM MS645 (Sigma Aldrich SML2549), 1 μM THZ-1 (Selleck chemicals S7549), 20 μM SGC-SCP30 (Selleck chemicals S7256), 10 μM OICR-9429 (Selleck chemicals S7833), 50 μM MI-3 (Selleck chemicals S7619), 2 μM trichostatin A (Selleck chemicals S1045), or DMSO. […]

OCCCCCCO [1,6-hexanediol]
ecDNA hub clustering (interphase DNA FISH, autocorrelation g(r)) ([1]; 1% 1,6-hexanediol): did not affect ecDNA hubs

Cc1sc2c(c1C)C(c1ccc(Cl)cc1)=N[C@@H](CC(=O)NCCCCCCCCCCNC(=O)C[C@@H]1N=C(c3ccc(Cl)cc3)c3c(sc(C)c3C)-n3c(C)nnc31)c1nnc(C)n1-2 [MS645]
MYC mRNA level [2]: reduced ecDNA transcription and clustering similar to JQ1 | ecDNA hub clustering (interphase DNA FISH, autocorrelation g(r)) ([1]; 500 nM): reduced ecDNA transcription and clustering similar to JQ1

alpha-amanitin
ecDNA hub clustering (interphase DNA FISH, autocorrelation g(r)) ([1]; 100 μg/mL alpha-amanitin): did not affect ecDNA hubs
